# Data published in patent US11531207B2, “Devices, apparatus and method for providing photostimulation and imaging of structures” (The Trustees of Columbia University in the City of New York, priority 2008, dated 2022).
# Tested on: glia
# Test: dual labeling of cortical slices with mag-Indo-1AM and sulforhodamine (neurons vs glia)
# Format: cell-based, mice
# Settings: 145/2555; n=4 slices; neocortical slices
# Method: FIGS. 9(a)-9(d) are exemplary images mag-Indo-1-AM loads mostly neurons in which slices are simultaneously loaded with mag-Indo1-AM and Sulforhodamine 101 (e.g., SR101, 20 μM) and imaged at their respective exemplary wavelengths;
# (See A. Nimmerjahn, F. Kirchhoff, J. N. Kerr et al., Nat Methods 1 (1), 31 (2004)). For example, 5.7±1.56% (145/2555; n=4 slices) of mag-Indo-1AM loaded cells can also be loaded with sulforhodamine, and only 8.1 t 2.59% (145/1786, n=4 slices) of sulforhodamine-loaded cells can also be loaded with mag-Indo-1AM.
# Coronal neocortical slices can be prepared from, e.g., P12-15 C57/BL6 mice or somatostatin-GFP mice (see A. A. Oliva, Jr., M. Jiang, T. Lam et al., J Neurosci 20 (9), 3354 (2000)) (e.g., Jackson Laboratory, Bar Harbor, Me.) with a vibratome (e.g., VT1000S; Leica, Nussloch, Germany). 300 μm thick slices can be cut in ice-cold oxygenated modified ACSF that can include 1 mM CaCl2 and 3 mM MgSO4, in which NaCl can be replaced by an equimolar concentration of sucrose (in mM): 27 NaHCO3, 1.5 NaH2PO4, 222 Sucrose, 2.6 KCl. Slices can then be placed in oxygenated standard ACSF at 37° C. for 30 min. For AM-loading, slices can be deposited onto the bottom of a small Petri dish (35×10 mm) filled with 2 ml of ACSF, ventilated with 95% O2/5% CO2 and placed in a slide warmer at 37° C. (Fisher Scientific, Waltham Mass.). […]
substance,measurement,value
mag-Indo-1AM,mag-Indo-1AM loaded cells also loaded with sulforhodamine,5.7±1.56%
